ChEMBL document CHEMBL2202997, “Ex vivo study of the vasorelaxant activity induced by phenanthrene derivatives isolated from Maxillaria densa” (J Nat Prod, 2012)
Calls of active or inactive are those of the source. No cut-off for these calls is given here.

What was measured:
Aorta [1] = assay: Vasorelaxant activity in Wistar rat aorta with endothelium assessed as inhibition of norepinephrine-induced contraction; type: functional, tissue-based
Aorta [2] = assay: Vasorelaxant activity in Wistar rat aorta with endothelium assessed as inhibition of norepinephrine-induced contraction relative to control; type: functional
Aorta [3] = assay: Vasorelaxant activity in Wistar rat aorta without endothelium assessed as inhibition of norepinephrine-induced contraction relative to control; type: functional
Aorta [4] = assay: Vasorelaxant activity in Wistar rat aorta without endothelium assessed as inhibition of norepinephrine-induced contraction; type: functional, tissue-based
Aorta [5] = assay: Vasorelaxant activity in Wistar rat aorta without endothelium assessed as inhibition of extracellular Ca2+-induced contractions activated by potassium chloride-induced contraction; type: functional, tissue-based
Aorta [6] = assay: Vasorelaxant activity in Wistar rat aorta without endothelium assessed as inhibition of extracellular Ca2+-induced contractions activated by potassium chloride-induced contraction relative to control; type: functional
Aorta [7] = assay: Induction of relaxation in Wistar rat endothelium-denuded aorta in presence of potassium channel blocker glibenclamide; type: functional, tissue-based
Aorta [8] = assay: Vasorelaxant activity in Wistar rat endothelium-denuded aorta assessed as inhibition of CaCl2-induced contraction; type: functional, tissue-based
Aorta [9] = assay: Vasorelaxant activity in Wistar rat endothelium-denude aorta assessed as inhibition of norepinephrine-induced contraction in presence of soluble guanylyl cyclase inhibitor ODQ; type: functional, tissue-based
Aorta [10] = assay: Induction of relaxation in Wistar rat endothelium-denuded aorta in presence of potassium channel blocker TEA; type: functional, tissue-based
Aorta [11] = assay: Vasorelaxant activity in Wistar rat endothelium-denuded aorta assessed as inhibition of FPL-64176-induced contraction at 11 to 63 uM; type: functional, tissue-based

| SMILES | EC50 (Aorta [1]) | Efficacy (Aorta [2]) | Efficacy (Aorta [3]) | inhibition (Aorta [1]) | EC50 (Aorta [4]) | inhibition (Aorta [4]) | EC50 (Aorta [5]) | Efficacy (Aorta [6]) | Activity (Aorta [7]) | inhibition (Aorta [8]) | inhibition (Aorta [9]) | Activity (Aorta [10]) | inhibition (Aorta [11]) |
| --- | --- | --- | --- | --- | --- | --- | --- | --- | --- | --- | --- | --- | --- |
| C[N+](C)(C)CCOC(N)=O.[Cl-] [CARBACHOL] | 0.41 µM | 74.06% | – | – | – | – | – | – | – | – | – | – | – |
| COc1c(O)cc2c(c1OC)-c1ccc(O)cc1CC2 [ERIANTHRIDIN] | 142 µM | 85.47% | 82.4% | Dose-dependent effect | 167 µM | Dose-dependent effect | – | – | – | – | – | – | – |
| COc1c(O)cc2cc(OC)c3cccc(O)c3c2c1OC [FIMBRIOL A] | 234 µM | 83.05% | 73.86% | Dose-dependent effect | 288 µM | Dose-dependent effect | – | – | – | – | – | – | – |
| COc1c(O)cc2cc(OC)c3cc(O)ccc3c2c1OC [GYMNOPUSIN] | 63 µM | 94% | 98.18% | Dose-dependent effect | 70.2 µM | Dose-dependent effect | 119 µM | 71.3% | inactive | Active | Active | inactive | Dose-dependent effect |
| COC(=O)C1=C(C)NC(C)=C(C(=O)OC)C1c1ccccc1[N+](=O)[O-] [NIFEDIPINE] | – | – | 97% | – | 4.31 µM | – | – | – | – | – | – | – | – |
